Calls of active or inactive are those of the source. No cut-off for these calls is given here.
Assays:
[1] = system: Paracentrotus lividus; test: Antimitotic activity in sea urchin fertilized egg assessed as cleavage arrest treated at 8 to 20 mins post-fertilization measured at 2.5 to 5.5 hrs post-fertilization; assay type: functional
[2] = system: Paracentrotus lividus; test: Antimitotic activity in sea urchin fertilized egg assessed as cleavage alteration treated at 8 to 20 mins post-fertilization measured at 2.5 to 5.5 hrs post-fertilization; assay type: functional
[3] = system: Paracentrotus lividus; test: Microtubule destabilizing activity in sea urchin free-swimming blastula assessed as embryo spinning treated at 9 to 10 hrs post-fertilization measured after 0.15 to 15 hrs; assay type: functional
[4] = system: Paracentrotus lividus; test: Microtubule destabilizing activity in sea urchin free-swimming blastula assessed as embryo spinning up to 4 uM treated at 9 to 10 hrs post-fertilization measured after 0.15 to 15 hrs; assay type: functional, organism-based
[5] = system: MOLT-4; test: Growth inhibition of human MOLT4 cells after 48 hrs by sulforhodamine B assay; assay type: functional; conditions: MOLT-4, 48 h
[6] = system: HT-29; test: Growth inhibition of human HT-29 cells after 48 hrs by sulforhodamine B assay; assay type: functional; conditions: HT-29, 48 h
[7] = Growth inhibition of human HCC2998 cells after 48 hrs by sulforhodamine B assay; assay type: functional; conditions: HCC 2998, 48 h
[8] = system: SF-268; test: Growth inhibition of human SF268 cells after 48 hrs by sulforhodamine B assay; assay type: functional; conditions: SF-268, 48 h
[9] = system: U-251; test: Growth inhibition of human U251 cells after 48 hrs by sulforhodamine B assay; assay type: functional; conditions: U-251, 48 h
[10] = system: TK-10; test: Growth inhibition of human TK10 cells after 48 hrs by sulforhodamine B assay; assay type: functional; conditions: TK-10, 48 h
[11] = system: HOP-62; test: Growth inhibition of human HOP62 cells after 48 hrs by sulforhodamine B assay; assay type: functional; conditions: HOP-62, 48 h
[12] = system: SK-MEL-2; test: Growth inhibition of human SK-MEL-2 cells after 48 hrs by sulforhodamine B assay; assay type: functional; conditions: SK-MEL-2, 48 h
[13] = system: IGROV-1; test: Growth inhibition of human IGROV1 cells after 48 hrs by sulforhodamine B assay; assay type: functional; conditions: IGROV-1, 48 h
[14] = Growth inhibition of human OVCAR5 cells after 48 hrs by sulforhodamine B assay; assay type: functional; conditions: OVCAR-5, 48 h
[15] = Growth inhibition of human RXF393 cells after 48 hrs by sulforhodamine B assay; assay type: functional; conditions: RXF 393, 48 h
[16] = system: NCI-H226; test: Growth inhibition of human NCI-H226 cells after 48 hrs by sulforhodamine B assay; assay type: functional; conditions: NCI-H226, 48 h
[17] = system: LOX IMVI; test: Growth inhibition of human LOXIMVI cells after 48 hrs by sulforhodamine B assay; assay type: functional
[18] = system: OVCAR-8; test: Growth inhibition of human OVCAR8 cells after 48 hrs by sulforhodamine B assay; assay type: functional; conditions: OVCAR-8, 48 h
[19] = system: NCI-H522; test: Growth inhibition of human NCI-H522 cells after 48 hrs by sulforhodamine B assay; assay type: functional; conditions: NCI-H522, 48 h
[20] = system: SK-MEL-28; test: Growth inhibition of human SK-MEL-28 cells after 48 hrs by sulforhodamine B assay; assay type: functional; conditions: SK-MEL-28, 48 h
[21] = system: RPMI-8226; test: Growth inhibition of human RPMI8226 cells after 48 hrs by sulforhodamine B assay; assay type: functional; conditions: RPMI-8226, 48 h
[22] = system: SR; test: Growth inhibition of human SR cells after 48 hrs by sulforhodamine B assay; assay type: functional
[23] = system: CCRF-CEM; test: Growth inhibition of human CCRF-CEM cells after 48 hrs by sulforhodamine B assay; assay type: functional
[24] = system: SN12C; test: Growth inhibition of human SN12C cells after 48 hrs by sulforhodamine B assay; assay type: functional
[25] = system: HCT-15; test: Growth inhibition of human HCT15 cells after 48 hrs by sulforhodamine B assay; assay type: functional; conditions: HCT-15, 48 h
[26] = system: SW-620; test: Growth inhibition of human SW620 cells after 48 hrs by sulforhodamine B assay; assay type: functional; conditions: SW-620, 48 h
[27] = system: SNB-19; test: Growth inhibition of human SNB19 cells after 48 hrs by sulforhodamine B assay; assay type: functional; conditions: SNB-19, 48 h
[28] = Growth inhibition of human SF539 cells after 48 hrs by sulforhodamine B assay; assay type: functional; conditions: SF-539, 48 h
[29] = system: ACHN; test: Growth inhibition of human ACHN cells after 48 hrs by sulforhodamine B assay; assay type: functional
[30] = Growth inhibition of human NCI-ADR-RES cells after 48 hrs by sulforhodamine B assay; assay type: functional
[31] = system: OVCAR-3; test: Growth inhibition of human OVCAR3 cells after 48 hrs by sulforhodamine B assay; assay type: functional; conditions: OVCAR-3, 48 h
[32] = system: A498; test: Growth inhibition of human A498 cells after 48 hrs by sulforhodamine B assay; assay type: functional; conditions: A498, 48 h
[33] = system: SF-295; test: Growth inhibition of human SF295 cells after 48 hrs by sulforhodamine B assay; assay type: functional; conditions: SF-295, 48 h
[34] = system: SK-OV-3; test: Growth inhibition of human SKOV3 cells after 48 hrs by sulforhodamine B assay; assay type: functional; conditions: SK-OV-3, 48 h
[35] = system: HL-60(TB); test: Growth inhibition of human HL-60(TB) cells after 48 hrs by sulforhodamine B assay; assay type: functional; conditions: HL-60, 48 h
[36] = Growth inhibition of human EKVX cells after 48 hrs by sulforhodamine B assay; assay type: functional
[37] = Growth inhibition of human HOP92 cells after 48 hrs by sulforhodamine B assay; assay type: functional; conditions: HOP-92, 48 h
[38] = system: NCI-H460; test: Growth inhibition of human NCI-H460 cells after 48 hrs by sulforhodamine B assay; assay type: functional; conditions: NCI-H460, 48 h
[39] = system: UACC-62; test: Growth inhibition of human UACC62 cells after 48 hrs by sulforhodamine B assay; assay type: functional; conditions: UACC-62, 48 h
[40] = system: KM12; test: Growth inhibition of human KM12 cells after 48 hrs by sulforhodamine B assay; assay type: functional; conditions: KM12, 48 h
[41] = system: COLO 205; test: Growth inhibition of human COLO205 cells after 48 hrs by sulforhodamine B assay; assay type: functional; conditions: COLO 205, 48 h
[42] = system: NCI-H322M; test: Growth inhibition of human NCI-H322M cells after 48 hrs by sulforhodamine B assay; assay type: functional
[43] = system: HCT-116; test: Growth inhibition of human HCT116 cells after 48 hrs by sulforhodamine B assay; assay type: functional; conditions: HCT-116, 48 h
[44] = system: 786-0; test: Growth inhibition of human 786-0 cells after 48 hrs by sulforhodamine B assay; assay type: functional; conditions: 786-0, 48 h

COc1ccc(-c2c(NC(C)=O)noc2-c2cc3c(c(OC)c2OC)OCO3)cc1
EC [1]: >4 µM | EC [2]: >4 µM | EC [3]: >4 µM

COc1ccc(-c2c(NC(C)=O)noc2-c2cc(OC)c3c(c2)OCCO3)cc1
EC [1]: >4 µM | EC [2]: >4 µM | EC [3]: >4 µM

COc1ccc(-c2onc(NC(C)=O)c2-c2ccc(OC)cc2)cc1
EC [1]: >4 µM | EC [2]: >4 µM | EC [3]: >4 µM

COc1ccc(-c2onc(N)c2-c2cc(OC)c3c(c2OC)OCO3)cc1
EC [1]: >4 µM | EC [2]: >4 µM | EC [3]: >4 µM

COc1ccc(Cc2noc(-c3ccc([N+](=O)[O-])cc3)n2)cc1
Activity [4]: inactive

COc1ccc(-c2noc(N)c2-c2ccc(Cl)cc2)cc1
EC [1]: >4 µM | EC [2]: >4 µM | EC [3]: >4 µM

COc1ccc(-c2c(-c3cc(OC)c4c(c3OC)OCO4)noc2N(C(C)=O)C(C)=O)cc1
EC [1]: 2 µM | EC [2]: 0.5 µM | EC [3]: 5 µM

COc1ccc(Cc2noc(-c3cc(OC)c(OC)c(OC)c3)n2)cc1
Activity [4]: inactive

COc1ccc(/C=C\c2cc(OC)c3c(c2)OCO3)cc1O [Combretastatin A-2]
EC [1]: 0.01 µM | EC [2]: 0.002 µM | EC [3]: 0.05 µM

COc1ccc(-c2c(-c3cc(OC)c(OC)c(OC)c3)noc2N(C(C)=O)C(C)=O)cc1
EC [1]: 0.2 µM | EC [2]: 0.05 µM | EC [3]: 1 µM

COc1ccc(-c2noc(N)c2-c2cc3c(c(OC)c2OC)OCO3)cc1
EC [1]: >4 µM | EC [2]: >4 µM | EC [3]: >4 µM

COc1ccc(Cc2noc(-c3cc4c(c(OC)c3OC)OCO4)n2)cc1
Activity [4]: inactive

COc1ccc(-c2c(NC(C)=O)noc2-c2cc(OC)c3c(c2)OCO3)cc1
EC [1]: >4 µM | EC [2]: >4 µM | EC [3]: >4 µM

COc1ccc(Cc2noc(-c3cc(OC)c4c(c3OC)OCO4)n2)cc1
Activity [4]: inactive

COc1ccc(-c2c(NC(C)=O)noc2-c2cc(OC)c(OC)c(OC)c2)cc1
EC [1]: >4 µM | EC [2]: >4 µM | EC [3]: >4 µM

COc1ccc(-c2onc(NC(C)=O)c2-c2ccc(Cl)cc2)cc1
EC [1]: >4 µM | EC [2]: >4 µM | EC [3]: >4 µM

COc1ccc(-c2noc(N)c2-c2cc(OC)c(OC)c(OC)c2)cc1
EC [1]: 0.01 µM | EC [2]: 0.002 µM | EC [3]: 0.1 µM

COc1ccc(-c2noc(N)c2-c2cc(OC)c3c(c2OC)OCO3)cc1
EC [1]: >4 µM | EC [2]: 4 µM | EC [3]: >4 µM

COc1ccc(-c2c(NC(C)=O)noc2-c2cc(OC)c3c(c2OC)OCO3)cc1
EC [1]: >4 µM | EC [2]: >4 µM | EC [3]: >4 µM

COc1ccc(-c2c(-c3cc(OC)c4c(c3)OCO4)noc2N(C(C)=O)C(C)=O)cc1
EC [1]: 0.1 µM | EC [2]: 0.02 µM | EC [3]: 0.5 µM

COc1ccc(-c2onc(NC(C)=O)c2-c2cc(OC)c(OC)c(OC)c2)cc1
EC [1]: >4 µM | EC [2]: >4 µM | EC [3]: >4 µM

COc1ccc(-c2c(N)noc2-c2cc(OC)c3c(c2)OCCO3)cc1
EC [1]: 0.02 µM | EC [2]: 0.005 µM | EC [3]: 0.5 µM

COc1ccc(-c2onc(N)c2-c2cc(OC)c(OC)c(OC)c2)cc1
EC [1]: 0.02 µM | EC [2]: 0.004 µM | EC [3]: 0.2 µM

COc1ccc(-c2c(NC(C)=O)noc2-c2cccc(OC)c2)cc1
EC [1]: >4 µM | EC [2]: >4 µM | EC [3]: >4 µM

COc1ccc(/C=C\c2cc(OC)c(OC)c(OC)c2)cc1O [COMBRETASTATIN A4]
EC [1]: 0.01 µM | GI50 [5]: 3.27 nM | EC [2]: 0.002 µM | GI50 [6]: 100 nM | GI50 [7]: 63.4 nM | GI50 [8]: 5.7 nM | GI50 [9]: 4.03 nM | GI50 [10]: 100 nM | GI50 [11]: 2.65 nM | GI50 [12]: 4.37 nM | GI50 [13]: 14.6 nM | GI50 [14]: 100 nM | GI50 [15]: 2.37 nM | GI50 [16]: 3.81 nM | GI50 [17]: 3.25 nM | GI50 [18]: 2.99 nM | GI50 [19]: 2.18 nM | GI50 [20]: 8.07 nM | GI50 [21]: 3.42 nM | GI50 [22]: 2.99 nM | GI50 [23]: 2.62 nM | GI50 [24]: 5.98 nM | GI50 [25]: 3.66 nM | GI50 [26]: 3.04 nM | GI50 [27]: 3.85 nM | GI50 [28]: 2.54 nM | GI50 [29]: 6.14 nM | GI50 [30]: 1 nM | GI50 [31]: 2.1 nM | GI50 [32]: 6.11 nM | GI50 [33]: 3.87 nM | EC [3]: 0.05 µM | GI50 [34]: 58.9 nM | GI50 [35]: 2.16 nM | GI50 [36]: 85.7 nM | GI50 [37]: 2.73 nM | GI50 [38]: 3.11 nM | GI50 [39]: 5.51 nM | GI50 [40]: 4.99 nM | GI50 [41]: 100 nM | GI50 [42]: 7.45 nM | GI50 [43]: 3.28 nM | GI50 [44]: 100 nM

COc1ccc(CCc2noc(-c3cc(OC)c4c(c3)OCCO4)n2)cc1
Activity [4]: inactive

COc1ccc(-c2onc(NC(C)=O)c2-c2ccc([N+](=O)[O-])cc2)cc1
EC [1]: >4 µM | EC [2]: >4 µM | EC [3]: >4 µM

COc1ccc(Cc2noc(-c3cc(OC)c4c(c3)OCO4)n2)cc1
Activity [4]: inactive

COc1ccc(-c2nc(CCc3cc(OC)c(OC)c(OC)c3)no2)cc1
Activity [4]: inactive

COc1ccc(-c2onc(N)c2-c2cc3c(c(OC)c2OC)OCO3)cc1
EC [1]: >4 µM | EC [2]: 4 µM | EC [3]: >4 µM

COc1ccc(C(=O)Nc2noc(-c3ccc(OC)cc3)c2-c2cc(OC)c(OC)c(OC)c2)cc1
EC [1]: >4 µM | EC [2]: >4 µM | EC [3]: >4 µM

COc1ccc(Cc2noc(-c3cccc(OC)c3)n2)cc1
Activity [4]: inactive

COc1ccc(-c2c(-c3ccccc3)noc2N)cc1OC
EC [1]: 10 µM | EC [2]: 0.5 µM | EC [3]: 10 µM

COc1ccc(-c2c(-c3cc(OC)c4c(c3OC)OCO4)noc2N)cc1
EC [1]: >5 µM | EC [2]: 2 µM | EC [3]: >5 µM

From ChEMBL document CHEMBL3112491, “3-(5-)-Amino-o-diarylisoxazoles: regioselective synthesis and antitubulin activity” (2014)
